≈ marks a conversion by molar mass, not a printed value.
Tests used:
[1] = system: Potato leafhopper (Empoasca fabae); test: Potato Leafhopper Test; format: in vivo; settings: 600 grams per hectare; 72 hours after infestation; treated fava bean leaf; read-out: Percent Control of Potato leaf hopper
Protocol: (§1) The test solution was sprayed using a moving single boom tee jet sprayer at a volume equivalent to 935 liters/ha onto a petri dish containing a fava bean (Vicia faba) leaf placed on a moistened piece of filter paper. After the leaf dried it was infested with five mixed nymphs (Empoasca fabae) and covered. The percent control was evaluated 72 hours after infestation.

[2] = system: Southern Root-Knot Nematode Meloidogyne incognita; test: Nematode Screening Test; format: in vivo; settings: 11400 grams per hectare; soil, cucumber roots, 21 days
Protocol: For the nematode test, soil was homogeneously inoculated with nematode eggs (Southern Root-Knot Nematode Meloidogyne incognita) at a rate of 20000 eggs per 200 milliliters (ml) of soil extracted from a macerated blend of tomato roots heavily knotted with the root-knot nematode. Ten ml of the 150 ppm test solution were added to 200 ml of the inoculated soil in a 16 oz. jar to give a concentration by volume of 11400 grams per hectare (gm/ha). […] The jars were shaken to ensure thorough mixing, immediately uncapped, and allowed to air for two hours. The soil was placed into a 7.5 cm plastic pot and three cucumber (Cucumis sativus) seeds were planted. The pots were held under greenhouse conditions for 21 days. Upon termination, the cucumber roots were examined for the presence of knots. Results are summarized in Table 2 and are expressed as percent knot reduction.

[3] = system: southern corn rootworm, Diabrotica undecimpunctata howardi; test: Corn Rootworm Screening Test; settings: in Zea mays, soil, 240 h, read-out: Percent Control of Corn Rootworm
[4] = system: Mexican bean beetle (Epilachna varivestis); test: Mexican Bean Beetle Test; format: in vivo; settings: 600 grams per hectare, 48 hours after infestation, treated lima bean leaf
Protocol: as §1, with “lima” for “fava”, “(Phaseolus limensis var: Woods' Prolific)” for “(Vicia faba)”, “ten beetles (Epilachna varivestis)” for “five mixed nymphs (Empoasca fabae)”, “48” for “72”

[5] = system: Haemonchus contortus (McMaster, benzimidazole susceptible); test: Anthelmintic Test, inhibition of larval development; settings: 144 h, read-out: MIC (minimum inhibitory concentration)
Protocol: (§2) Compounds were tested as inhibitors of larval development in Haemonchus contortus (McMaster, benzimidazole susceptible) isolates, Trichostrongylus colubriformis (McMaster susceptible) and Ostertagia circumcincta (Glenlothian susceptible).
(§3) Eggs of the parasitic helminths, isolated from sheep feces, were applied to wells of a microtiter plate which contained a gradient of concentrations of the test compound in nutrient solution. After the eggs hatched, L1 larvae developed through to the L3 stage over 6 days. Development was inhibited and a minimum inhibitory concentration in ppm was determined. See for example, E. Lacey et al p 177-184 in: Resistance of Parasites to Antiparasitic Drugs, edited by J. C. Boray MSD AGVET, Rahway, N.J.

[6] = system: Ostertagia circumcincta (Glenlothian susceptible); test: as above; settings: Teladorsagia circumcincta, 144 h, read-out: MIC (minimum inhibitory concentration)
Protocol: as §2, §3

[7] = system: Trichostrongylus colubriformis (McMaster susceptible); test: as above; settings: 144 h, read-out: MIC (minimum inhibitory concentration)
Protocol: as §2, §3

Structure (SMILES): CCOP(=S)(OCCOC)N(NC(=O)C(Cl)Cl)C(C)(C)C (centres unmarked) [Compound 19]
- mortality at 600 g/ha, 600 g/ha [1]: 100%
- Percent Control of Root Knot Nematode (percent knot reduction) [2]: 90%
- mortality at 11400 g/ha, 11400 g/ha [3]: 0%

Structure (SMILES): COCCOP(=S)(OCCOC)N(NC(=O)C(Cl)(Cl)Cl)C(C)(C)C [Compound 16]
- mortality at 600 g/ha, 600 g/ha [1]: 100%
- Percent Control of Root Knot Nematode (percent knot reduction) [2]: 0%
- mortality at 11400 g/ha, 11400 g/ha [3]: 66%

Structure (SMILES): COP(=S)(OC)N(NC(=O)C(Cl)Cl)C(C)(C)C [Compound 13]
- mortality at 600 g/ha, 600 g/ha [1]: 100%
- Percent Control of Root Knot Nematode (percent knot reduction) [2]: 100%
- mortality at 11400 g/ha, 11400 g/ha [3]: 0%

Structure (SMILES): COCCOP(=S)(OCCOC)N(NC(=O)C(Cl)Cl)C(C)(C)C [Compound 17]
- mortality at 600 g/ha, 600 g/ha [1]: 60%
- Percent Control of Root Knot Nematode (percent knot reduction) [2]: 0%
- mortality at 11400 g/ha, 11400 g/ha [3]: 0%

Structure (SMILES): CCOP(=S)(OCC)N(NC(=O)C(Br)(Br)Br)C(C)(C)C [Compound 8]
- percent control at 600 g/ha [4]: 30%
- Percent Control of Root Knot Nematode (percent knot reduction) [2]: 98%
- mortality at 11400 g/ha, 11400 g/ha [3]: 0%

Structure (SMILES): CCCOP(=S)(OCCC)N(NC(=O)C(Cl)(Cl)Cl)C(C)(C)C [Compound 2]
- percent control at 600 g/ha [4]: 100%
- Percent Control of Root Knot Nematode (percent knot reduction) [2]: 0%
- mortality at 11400 g/ha, 11400 g/ha [3]: 87%

Structure (SMILES): COP(=S)(OC)N(NC(=O)C(Cl)(Cl)Cl)C(C)(C)C [Compound 9]
- percent control at 600 g/ha [4]: 100%
- Percent Control of Root Knot Nematode (percent knot reduction) [2]: 100%
- mortality at 11400 g/ha, 11400 g/ha [3]: 100%

Structure (SMILES): CCOP(=S)(OCC)N(NC(=O)C(F)(Cl)Cl)C(C)(C)C [Compound 7]
- percent control at 600 g/ha [4]: 80%
- Percent Control of Root Knot Nematode (percent knot reduction) [2]: 0%
- mortality at 11400 g/ha, 11400 g/ha [3]: 96%

Structure (SMILES): CCCOP(=S)(OCC)N(NC(=O)C(Cl)(Cl)Cl)C(C)(C)C (centres unmarked) [Compound 3]
- percent control at 600 g/ha [4]: 100%
- Percent Control of Root Knot Nematode (percent knot reduction) [2]: 74%
- mortality at 11400 g/ha, 11400 g/ha [3]: 98%

Structure (SMILES): CCOP(=S)(OCC)N(NC(=O)CCl)C(C)(C)C [Compound 11, 1-(O,O-diethylthiophosphoryl)-1-tertbutyl-2-monochloroacetyl Hydrazine]
- mortality at 600 g/ha, 600 g/ha [1]: 100%
- Percent Control of Root Knot Nematode (percent knot reduction) [2]: 43%
- mortality at 11400 g/ha, 11400 g/ha [3]: 0%

Structure (SMILES): CCOP(=S)(OCC)N(NC(=O)C(F)(F)Cl)C(C)(C)C [Compound 15]
- mortality at 600 g/ha, 600 g/ha [1]: 100%
- Percent Control of Root Knot Nematode (percent knot reduction) [2]: 0%
- mortality at 11400 g/ha, 11400 g/ha [3]: 0%

Structure (SMILES): COP(=S)(OC)N(NC(=O)CCl)C(C)(C)C [Compound 14]
- mortality at 600 g/ha, 600 g/ha [1]: 100%
- Percent Control of Root Knot Nematode (percent knot reduction) [2]: 0%
- mortality at 11400 g/ha, 11400 g/ha [3]: 0%

Structure (SMILES): CCOP(=S)(c1ccccc1)N(NC(=O)C(Cl)(Cl)Cl)C(C)(C)C (centres unmarked) [Compound 22]
- mortality at 600 g/ha, 600 g/ha [1]: 100%
- mortality at 11400 g/ha, 11400 g/ha [3]: 0%

Structure (SMILES): CCOP(=S)(OCC(C)(C)C)N(NC(=O)C(Cl)(Cl)Cl)C(C)(C)C (centres unmarked) [Compound 4]
- percent control at 600 g/ha [4]: 100%
- Percent Control of Root Knot Nematode (percent knot reduction) [2]: 0%
- mortality at 11400 g/ha, 11400 g/ha [3]: 0%

Structure (SMILES): CCOP(=S)(OCCOC)N(NC(=O)C(Cl)(Cl)Cl)C(C)(C)C (centres unmarked) [Compound 18]
- mortality at 600 g/ha, 600 g/ha [1]: 100%
- Percent Control of Root Knot Nematode (percent knot reduction) [2]: 25%
- mortality at 11400 g/ha, 11400 g/ha [3]: 0%

Structure (SMILES): CCOP(=S)(OCC)N(NC(=O)C(Cl)Cl)C(C)(C)C [Compound 10, 1-(O,O-diethylthiophosphoryl)-1-tertbutyl-2-dichloroacetyl Hydrazine]
- percent control at 600 g/ha [4]: 100%
- Percent Control of Root Knot Nematode (percent knot reduction) [2]: 100%
- MIC [5]: 1.56 mg/L (≈ 4.44 µM)
- MIC [6]: 1.56 mg/L (≈ 4.44 µM)
- MIC [7]: 12.5 mg/L (≈ 35.6 µM)
- mortality at 11400 g/ha, 11400 g/ha [3]: 0%

Structure (SMILES): CCOP(=S)(OC(C)CC)N(NC(=O)C(Cl)(Cl)Cl)C(C)(C)C (centres unmarked) [Compound 5]
- percent control at 600 g/ha [4]: 100%
- Percent Control of Root Knot Nematode (percent knot reduction) [2]: 0%
- mortality at 11400 g/ha, 11400 g/ha [3]: 96%

Structure (SMILES): CCOP(=S)(OCC)N(NC(=O)C(F)(F)F)C(C)(C)C [Compound 12]
- mortality at 600 g/ha, 600 g/ha [1]: 100%
- Percent Control of Root Knot Nematode (percent knot reduction) [2]: 0%
- mortality at 11400 g/ha, 11400 g/ha [3]: 100%

Structure (SMILES): CCOP(=S)(OCC)N(NC(=O)C(Cl)(Cl)Cl)C(C)(C)C [Compound 1, 1-(O,O-diethylthiophosphoryl)-1-tertbutyl-2-trichloroacetyl Hydrazine]
- percent control at 600 g/ha [4]: 100%
- Percent Control of Root Knot Nematode (percent knot reduction) [2]: 98%
- mortality at 11400 g/ha, 11400 g/ha [3]: 100%

Structure (SMILES): CCOP(=S)(OC(C)C)N(NC(=O)C(Cl)(Cl)Cl)C(C)(C)C (centres unmarked) [Compound 6]
- percent control at 600 g/ha [4]: 100%
- Percent Control of Root Knot Nematode (percent knot reduction) [2]: 54%
- mortality at 11400 g/ha, 11400 g/ha [3]: 100%
